{
  "source": "patent US9890140B2",
  "about": "“Maleate salts of a quinazoline derivative useful as an antiangiogenic agent” (AstraZeneca AB, priority 2003, dated 2018)",
  "key": {"[1]": {"assay": "Solid state stability of the free base on dehydration / micronisation (XRPD)", "format": "physicochemical", "procedure": "This is shown by a broadening of the peaks and formation of an amorphous 'hump'-see FIG. 4. […] The X-ray powder diffraction spectra were determined by mounting a sample of the crystalline salt on Siemens single silicon crystal (SSC) wafer mounts and spreading out the sample into a thin layer with the aid of a microscope slide. The sample was spun at 30 revolutions per minute (to improve counting statistics) and irradiated with X-rays generated by a copper long-fine focus tube operated at 40 kV and 40 mA with a wavelength of 1.5406 angstroms. The collimated X-ray source was passed through an automatic variable divergence slit set at […] and the reflected radiation directed through a 2 mm antiscatter slit and a 0.2 mm detector slit. The sample was exposed for 1 second per 0.02 degree 2-theta increment (continuous scan mode) over the range 2 degrees to 40 degrees 2-theta in theta-theta mode. The running time was 31 minutes and 41 seconds. The instrument was equipped with a scintillation counter as detector. Control and data capture was by means of a Dell Optiplex 686 NT 4.0 Workstation operating with Diffract+ software. Persons skilled in the art of X-ray powder diffraction will realise that the relative intensity of peaks can be affected by, for example, grains above 30 microns in size and non-unitary aspect ratios which may affect analysis of samples. […]"}, "[2]": {"tested_on": "basal HUVEC growth (without exogenous VEGF)", "assay": "In vitro HUVEC proliferation assay, basal growth", "format": "cell-based", "conditions": "Homo sapiens, no exogenous VEGF, read-out: IC50 for inhibition of basal endothelial cell proliferation", "procedure": "(§1) HUVEC cells were isolated in MCDB 131 (Gibco BRL)+7.5% v/v foetal calf serum (FCS) and were plated out (at passage 2 to 8), in MCDB 131+2% v/v FCS+3 μg/ml heparin+1 μg/ml hydrocortisone, at a concentration of 1000 cells/well in 96 well plates. After a minimum of 4 hours they were dosed with VEGF (3 ng/ml) and compound. The cultures were then incubated for 4 days at 37° C. with 7.5% CO2. On day 4 the cultures were pulsed with 1 μCi/well of tritiated-thymidine (Amersham product TRA 61) and incubated for 4 hours. The cells were harvested using a 96-well plate harvester (Tomtek) and then assayed for incorporation of tritium with a Beta plate counter. Incorporation of radioactivity into cells, expressed as cpm, was used to measure inhibition of growth factor-stimulated cell proliferation by compounds. This methodology was also used to assess compound effects versus basal HUVEC growth (i.e. endothelial cell proliferation in MCDB 131+2% v/v FCS […]+3 μg/ml heparin+1 μg/ml hydrocortisone without the addition of exogenous VEGF)."}, "[3]": {"tested_on": "VEGF-stimulated proliferation of human umbilical vein endothelial cells (HUVEC)", "assay": "In vitro HUVEC proliferation assay, VEGF-stimulated", "format": "cell-based", "conditions": "read-out: IC50 for inhibition of VEGF-stimulated endothelial cell proliferation", "procedure": "(b) In Vitro HUVEC Proliferation Assay\nas §1"}, "Calu-6 tumour xenograft": {"tested_on": "Calu-6 tumour xenograft", "assay": "In vivo solid tumour disease model", "design": "species or system female athymic Swiss nu/nu mice", "conditions": "once-daily oral, 28 days", "procedure": "(c) In Vivo Solid Tumour Disease Model This test measures the capacity of compounds to inhibit solid tumour growth. CaLu-6 tumour xenografts were established in the flank of female athymic Swiss nu/nu mice, by subcutaneous injection of 1×10^6 Calu-6 cells/mouse in 100 μl of a 50% (v/v) solution of Matrigel in serum free culture medium. […] Tumours were measured using vernier calipers and volumes were calculated as: (l×w)×√(l×w)×(π/6), where l is the longest diameter and w the diameter perpendicular to the longest. Test compounds were administered orally once daily for a minimum of 21 days, and control animals received compound diluent. Tumours were measured twice weekly. The level of growth inhibition was calculated by comparison of the mean tumour volume of the control group versus the treatment group using a Student T test and/or a Mann-Whitney Rank Sum Test. The inhibitory effect of compound treatment was considered significant when p<0.05."}, "[4]": {"assay": "Crystallinity of AZD2171 salts", "format": "physicochemical"}, "[5]": {"assay": "Evidence of hydrate formation (vapour sorption or TGA)", "format": "physicochemical", "conditions": "vapour sorption (hysteresis, water absorption) or TGA", "procedure": "About 5 mg of material contained in a quartz holder at 25° C. was subjected to humidified nitrogen at the following relative humidities (RH): 0, 20, 40, 60, 80, 95, 80, 60, 40, 20, 0% RH in duplicate. Typically between 3 and 12 mg of material contained in a 70 μl alox (aluminium oxide) crucible was heated over the temperature range 25° C. to 325° C. at a constant heating rate of 10° C. per minute. A purge gas using helium was used—flow rate 50 ml per minute."}, "[6]": {"assay": "Evidence for polymorphism from DSC thermograms", "format": "physicochemical", "procedure": "Analytical Instrument: Mettler DSC820e. Typically less than 5 mg of material contained in a 40 μl aluminium pan fitted with a pierced lid was heated over the temperature range 25° C. to 325° C. at a constant heating rate of 10° C. per minute. A purge gas using nitrogen was used—flow rate 100 ml per minute."}, "[7]": {"assay": "Dynamic vapour sorption, moisture content at 80% RH", "format": "physicochemical", "conditions": "80% relative humidity", "procedure": "Dynamic Vapour Sorption Analytical Instrument: Surface Measurements Systems Dynamic Vapour Sorption Analyser. About 5 mg of material contained in a quartz holder at 25° C. was subjected to humidified nitrogen at the following relative humidities (RH): 0, 20, 40, 60, 80, 95, 80, 60, 40, 20, 0% RH in duplicate."}},
  "data": [
    {"molecule": "COc1cc2c(Oc3ccc4[nH]c(C)cc4c3F)ncnc2cc1OCCCN1CCCC1", "note": "[AZD2171, 4-((4-fluoro-2-methyl-1H-indol-5-yl)oxy)-6-methoxy-7-(3-(pyrrolidin-1-yl)propoxy)quinazoline]", "values": [
      {"measurement": "Solid form after dehydration", "setting": "[1]; heating to 100° C., FIG. 3", "value": "becomes amorphous"},
      {"measurement": "Solid form after particle size reduction", "setting": "[1]; micronisation, FIG. 4", "value": "amorphous material does indeed form"},
      {"measurement": "IC50", "setting": "[2]", "value": "> 500", "unit": "nM"},
      {"measurement": "IC50", "setting": "[3]", "value": "0.4 ± 0.2", "unit": "nM"},
      {"measurement": "Inhibition of growth of Calu-6 tumour xenograft", "setting": "Calu-6 tumour xenograft; 1.5 mg/kg/day, P<0.01", "value": 49, "unit": "%"},
      {"measurement": "Inhibition of growth of Calu-6 tumour xenograft", "setting": "Calu-6 tumour xenograft; 3 mg/kg/day, P<0.0001", "value": 69, "unit": "%"},
      {"measurement": "Inhibition of growth of Calu-6 tumour xenograft", "setting": "Calu-6 tumour xenograft; 6 mg/kg/day, P<0.0001", "value": 91, "unit": "%"}
    ]},
    {"molecule": "Fumarate", "values": [
      {"measurement": "Crystalline (Yes/No)", "setting": "[4]", "value": "Yes"},
      {"measurement": "Evidence of Hydrate Formation (Yes/No)", "setting": "[5]", "value": "No"},
      {"measurement": "No of Polymorphs", "setting": "[6]", "value": "≧3"},
      {"measurement": "Moisture Content at 80% RH", "setting": "[7]", "value": 3.5, "unit": "%"}
    ]},
    {"molecule": "Malonate", "values": [
      {"measurement": "Crystalline (Yes/No)", "setting": "[4]", "value": "Yes"},
      {"measurement": "Evidence of Hydrate Formation (Yes/No)", "setting": "[5]", "value": "Yes"},
      {"measurement": "No of Polymorphs", "setting": "[6]", "value": "≧3"}
    ]}
  ]
}
